From the supplement of paper PMC11061612

Key:
[1] = system: MOLP-8 (Plasma Cell Myeloma); experiment: Bliss excess, mean over the matrix (fraction); higher = more synergy
Method in brief: (§1)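 Bliss excess equals the observed combination effect minus the expected value EA + EB − EA·EB, where EA and EB are the effects of each agent alone. Combination Emax is the second-highest inhibition within the matrix. Inhibition was scaled from CellTiter-Glo 2.0 luminescence, with 0 set by vehicle wells and 1 by blank wells, after 72 hours of two-drug dosing of cells plated in 1536-well plates.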

[2] = system: NAMALWA (Burkitt's Lymphoma); experiment: as above
Method in brief: as §1

[3] = system: SiHa (Cervical Carcinoma); experiment: as above
Method in brief: as §1

[4] = system: OAW-28 (Ovarian Carcinoma); experiment: as above
Method in brief: as §1

[5] = system: P30-OHK (B-Lymphoblastic Leukemia); experiment: as above
Method in brief: as §1

GAK (Melanoma) = experiment: as above
Method in brief: as §1

[6] = system: ZR-75-30 (Breast Carcinoma); experiment: as above
Method in brief: as §1

[7] = system: COR-L88 (Small Cell Lung Carcinoma); experiment: as above
Method in brief: as §1

[8] = system: NCI-H1963 (Small Cell Lung Carcinoma); experiment: as above
Method in brief: as §1

[9] = system: P32-ISH (Burkitt's Lymphoma); experiment: as above
Method in brief: as §1

[10] = system: LS-1034 (Colorectal Carcinoma); experiment: as above
Method in brief: as §1

[11] = system: MM1S (Plasma Cell Myeloma); experiment: as above
Method in brief: as §1

[12] = system: SCC-4 (Oral Cavity Carcinoma); experiment: as above
Method in brief: as §1

[13] = system: SNU-407 (Colorectal Carcinoma); experiment: as above
Method in brief: as §1

[14] = system: BxPC-3 (Pancreatic Carcinoma); experiment: as above
Method in brief: as §1

[15] = system: RCC-JW (Kidney Carcinoma); experiment: as above
Method in brief: as §1

[16] = system: NCI-H1341 (Small Cell Lung Carcinoma); experiment: combination Emax (second highest fraction inhibited in the dose matrix, 72 h); higher = more inhibition; extreme values may be limits of the assay
Method in brief: as §1

[17] = system: IA-LM (Non-Small Cell Lung Carcinoma); experiment: as above
Method in brief: as §1

[18] = system: TUR (Acute Myeloid Leukemia); experiment: as above
Method in brief: as §1

Compound | Bliss excess [1] | Bliss excess [2] | Bliss excess [3] | Bliss excess [4] | Bliss excess [5] | Bliss excess (GAK (Melanoma)) | Bliss excess [6] | Bliss excess [7] | Bliss excess [8] | Bliss excess [9] | Bliss excess [10] | Bliss excess [11] | Bliss excess [12] | Bliss excess [13] | Bliss excess [14] | Bliss excess [15] | combination Emax [16] | combination Emax [17] | combination Emax [18]
NC1(C(=O)N[C@@H](CCO)c2ccc(Cl)cc2)CCN(c2ncnc3[nH]ccc23)CC1 [Capivasertib] + C[C@@H]1COCCN1C2=NC(=NC(=C2)C3(CC3)[S@](=N)(=O)C)C4=C5C=CNC5=NC=C4 [AZD6738] (first compound max 10 µM, 7x7, partner max 10 µM) | 0.0357 | -0.0194 | 0.0259 | 0.0005 | 0.0468 | -0.0552 | -0.057 | -0.0456 | -0.0142 | 0.0277 | -0.0782 | 0.0201 | -0.109 | -0.101 | -0.0076 | -0.0713 | 0.928 | 0.324 | 0.962
NC1(C(=O)N[C@@H](CCO)c2ccc(Cl)cc2)CCN(c2ncnc3[nH]ccc23)CC1 [Capivasertib] + Cn1cnc2c(F)c(Nc3ccc(Br)cc3Cl)c(C(=O)NOCCO)cc21 [Selumetinib] (first compound max 10 µM, 7x7, partner max 10 µM) | 0.121 | -0.0231 | -0.0081 | -0.0034 | 0.0142 | -0.0649 | -0.0071 | 0.0084 | 0.0023 | 0.0288 | -0.0123 | 0.0712 | 0.042 | 0.026 | -0.0091 | 0.0296 | 0.728 | 0.374 | 0.924
Cc1nc(Nc2ncc(C(=O)Nc3c(C)cccc3Cl)s2)cc(N2CCN(CCO)CC2)n1 [Dasatinib] + CC(=O)Nc1cccc(-n2c(=O)n(C3CC3)c(=O)c3c(Nc4ccc(I)cc4F)n(C)c(=O)c(C)c32)c1 [Trametinib] (first compound max 2 µM, 7x7, partner max 1 µM) | 0.0159 | -0.0039 | -0.0082 | 0.0599 | -0.0442 | -0.0624 | -0.0511 | -0.0239 | 0.0078 | 0.0545 | -0.0302 | -0.0089 | -0.0042 | 0.0332 | 0.0009 | 0.0062 | 0.425 | 0.654 | 0.308
COc1cc2ncnc(Nc3ccc(F)c(Cl)c3)c2cc1OCCCN1CCOCC1 [Gefitinib] + CC(C)n1c(=O)n(C)c2cnc3cc(F)c(-c4ccc(OCCCN5CCCCC5)nc4)cc3c21 [AZD1390] (first compound max 10 µM, 7x7, partner max 0.3 µM) | -0.0584 | -0.0355 | -0.0732 | -0.0392 | -0.0298 | -0.0656 | -0.0587 | -0.0652 | -0.0526 | -0.0116 | -0.0368 | -0.0356 | -0.059 | -0.0783 | -0.0692 | -0.069 | 0.108 | 0.202 | 0.293
CS(=O)(=O)CCNCc1ccc(-c2ccc3ncnc(Nc4ccc(OCc5cccc(F)c5)c(Cl)c4)c3c2)o1 [Lapatinib] + C[C@@H](Oc1cc(-c2cnn(C3CCNCC3)c2)cnc1N)c1c(Cl)ccc(F)c1Cl [Crizotinib] (first compound max 10 µM, 7x7, partner max 10 µM) | 0.012 | -0.0528 | -0.0394 | -0.0177 | 0.0323 | -0.0066 | -0.0031 | -0.0234 | -0.0272 | 0.0037 | -0.0407 | 0.0395 | 0.0003 | -0.0774 | -0.0259 | -0.0455 | 0.898 | 0.489 | 0.59
CC(=O)c1c(C)c2cnc(Nc3ccc(N4CCNCC4)cn3)nc2n(C2CCCC2)c1=O [Palbociclib] + CC1(C)CCC(CN2CCN(c3ccc(C(=O)NS(=O)(=O)c4ccc(NCC5CCOCC5)c([N+](=O)[O-])c4)c(Oc4cnc5[nH]ccc5c4)c3)CC2)=C(c2ccc(Cl)cc2)C1 [Venetoclax] (first compound max 10 µM, 7x7, partner max 1 µM) | 0.0278 | -0.0648 | -0.0347 | -0.0112 | 0.126 | -0.034 | -0.0434 | -0.0764 | 0.226 | -0.0132 | -0.12 | 0.0353 | -0.0637 | -0.01 | -0.0429 | -0.0539 | 0.259 | 0.0755 | 0.348
CC(=O)c1c(C)c2cnc(Nc3ccc(N4CCNCC4)cn3)nc2n(C2CCCC2)c1=O [Palbociclib] + Cc1c2c(nn1C)CSCc1cc(n(C)n1)CSc1cc(c3ccccc3c1)OCCCc1c(C(=O)O)n(C)c3c-2c(Cl)ccc13 [AZD5991] (first compound max 10 µM, 7x7, partner max 1 µM) | 0.0347 | -0.0139 | -0.0561 | 0.0058 | 0.0418 | -0.0234 | -0.0372 | 0.0122 | -0.0047 | 0.0299 | -0.064 | -0.0482 | -0.0394 | -0.0968 | -0.0528 | -0.0306 | 0.374 | 0.306 | 0.621
CC(=O)c1c(C)c2cnc(Nc3ccc(N4CCNCC4)cn3)nc2n(C2CCCC2)c1=O [Palbociclib] + Cn1cnc2c(F)c(Nc3ccc(Br)cc3Cl)c(C(=O)NOCCO)cc21 [Selumetinib] (first compound max 10 µM, 7x7, partner max 10 µM) | 0.0926 | -0.0123 | -0.0404 | -0.0301 | -0.0089 | 0.0221 | -0.0509 | -0.026 | 0.005 | -0.0334 | 0.0354 | -0.0061 | 0.0091 | 0.0615 | -0.0238 | -0.0397 | 0.254 | 0.281 | 0.379
C[C@@H](c1ccc2nccn2c1)n1nnc2ncc(-c3cnn(C)c3)nc21 [Savolitinib] + CC1(C)CCC(CN2CCN(c3ccc(C(=O)NS(=O)(=O)c4ccc(NCC5CCOCC5)c([N+](=O)[O-])c4)c(Oc4cnc5[nH]ccc5c4)c3)CC2)=C(c2ccc(Cl)cc2)C1 [Venetoclax] (first compound max 1 µM, 7x7, partner max 1 µM) | -0.0194 | -0.0098 | -0.0536 | -0.0331 | -0.0198 | -0.0762 | -0.0361 | -0.021 | -0.0237 | -0.0188 | -0.0465 | -0.0663 | -0.0649 | -0.0299 | -0.0371 | -0.0343 | 0.392 | 0.197 | 0.0127
C[C@@H](c1ccc2nccn2c1)n1nnc2ncc(-c3cnn(C)c3)nc21 [Savolitinib] + Cc1c2c(nn1C)CSCc1cc(n(C)n1)CSc1cc(c3ccccc3c1)OCCCc1c(C(=O)O)n(C)c3c-2c(Cl)ccc13 [AZD5991] (first compound max 1 µM, 7x7, partner max 1 µM) | -0.0219 | -0.05 | -0.0335 | -0.0129 | 0.0046 | 0.0201 | -0.0388 | -0.0019 | -0.0134 | -0.0162 | -0.022 | 0.021 | -0.0295 | -0.0396 | -0.0496 | -0.0354 | 0.488 | 0.268 | 0.347
Cn1cnc2c(F)c(Nc3ccc(Br)cc3Cl)c(C(=O)NOCCO)cc21 [Selumetinib] + C=CCn1c(=O)c2cnc(Nc3ccc(N4CCN(C)CC4)cc3)nc2n1-c1cccc(C(C)(C)O)n1 [AZD1775] (first compound max 10 µM, partner max 1 µM) | 0.0535 | -0.0104 | -0.0422 | -0.0604 | -0.0789 | -0.008 | -0.0587 | -0.011 | -0.0834 | -0.0186 | -0.038 | -0.0433 | -0.0376 | 0.0099 | 0.0243 | -0.0542 | 0.697 | 0.296 | 0.764
Cn1cnc2c(F)c(Nc3ccc(Br)cc3Cl)c(C(=O)NOCCO)cc21 [Selumetinib] + CC(C)n1c(=O)n(C)c2cnc3cc(F)c(-c4ccc(OCCCN5CCCCC5)nc4)cc3c21 [AZD1390] (first compound max 10 µM, 7x7, partner max 0.3 µM) | -0.0274 | -0.0102 | -0.018 | 0.0193 | -0.0043 | -0.0415 | -0.044 | -0.0086 | 0.0154 | -0.0083 | -0.0198 | 0.0258 | -0.0669 | -0.0235 | -0.0518 | -0.051 | 0.163 | 0.244 | 0.272
Cn1cnc2c(F)c(Nc3ccc(Br)cc3Cl)c(C(=O)NOCCO)cc21 [Selumetinib] + CCN(CCO)CCCOc1ccc2c(Nc3cc(CC(=O)Nc4cccc(F)c4)[nH]n3)ncnc2c1 [AZD2811] (first compound max 10 µM, 7x7, partner max 1 µM) | -0.017 | 0.0244 | -0.0355 | 0.0388 | -0.0123 | -0.069 | -0.0544 | 0.0014 | 0.0053 | -0.0479 | -0.0556 | 0.0812 | 0.0003 | -0.0522 | -0.057 | -0.0464 | 0.271 | 0.28 | 0.349
